# Test results published in publication PMC7174603, “Functional Analysis of Two Odorant-Binding Proteins, MaltOBP9 and MaltOBP10, in Monochamus alternatus Hope” (Frontiers in Physiology, 2020).
# What was measured:
# [1] = molecular target: T1, MaltOBP10 (Monochamus alternatus, UniProt A0A1I9HZL5); assay: biochemical; parameters: 1-NPN fluorescence displacement competitive binding to 2 uM recombinant OBP; Ki from IC50
# T1 construct: gene obp10; said to encode mature protein (clone primer starts at ATG)
# T1 sequence (A0A1I9HZL5 1-144 limits assumed): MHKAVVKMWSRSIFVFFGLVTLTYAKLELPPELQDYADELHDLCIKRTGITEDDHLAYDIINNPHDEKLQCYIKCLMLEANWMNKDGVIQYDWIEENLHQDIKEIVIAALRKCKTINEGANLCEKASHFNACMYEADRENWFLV
# Experimental: (§1) Fluorescence-binding assays were performed to determine the binding affinities of MaltOBP9 and MaltOBP10 with 17 volatiles in neutral and acidic pH conditions separately using N-phenyl-1-naphthylamine (1-NPN) as the fluorescent probe. 1-NPN and all of the other chemicals used in the binding assays were purchased from Sigma-Aldrich (St. Louis, MO, United States). All of the ligand stock solutions were prepared in spectrophotometric grade methanol. The binding constants for 1-NPN were determined by adding aliquots of 1 mM 1-NPN to separate samples containing 2 μM of each OBP in 50 mM Tris–HCl at pH 7.4 and room temperature. The binding of 1-NPN was measured at an excitation wavelength of 337 nm and the fluorescence intensity was recorded between 300 and 600 nm during a high-speed scan using an RF-5301PC fluorescence spectrophotometer with a 1-cm light path and a quartz cuvette. Saturation curves were constructed for the binding of 1-NPN with the OBPs and the dissociation constant (Kd) of the binding reaction was calculated by performing Scatchard analysis of the data using the Prism 5 program (GraphPad, La Jolla, CA, United States). The binding analyses were performed based on the assumption that the protein was completely active and that the stoichiometry of binding was 1:1 at saturation. Aliquots of the competitor ligand were added to a sample containing 2 μM of each separate OBP and a standard concentration of 1-NPN. […] The binding data were collected during three independent high-speed scans. Ki representing the Kd of the competitor was determined based on the IC50 value (half maximal inhibitory concentration) for the competitor as the concentration of the competitor that displaced 50% of the bound 1-NPN at a standard total 1-NPN concentration (bound plus free) at equilibrium. Ki was calculated according to the following equation: Ki = [IC50]/(1+[1-NPN]/K), where 1-NPN is the free concentration of 1-NPN and K1–NPN is Kd for the 1-NPN-OBP binding reaction determined by Scatchard analysis ([Campanacci et al., 2001]). After confirmation by SDS-PAGE, the purified MaltOBP9 and MaltOBP10 proteins were used in fluorescence-binding assays to determine their binding affinities with different volatiles that come from forest. First, we analyzed the binding of the fluorescent probe 1-NPN with MaltOBP9 and MaltOBP10 (Figure 6). […] The binding affinities (Ki < 50) ([Zheng et al., 2016]) with all of the ligands indicted the broad binding ranges of MaltOBP9 and MaltOBP10 at pH 7.4. […] The change in the pH appeared to have less impact on the binding with MaltOBP10.
# [2] = molecular target: T2, MaltOBP9 (Monochamus alternatus, UniProt A0A1I9HZK8); assay: biochemical; parameters: 1-NPN fluorescence displacement competitive binding to 2 uM recombinant OBP; Ki from IC50
# T2 construct: gene obp9; said to encode mature protein (clone primer starts at ATG)
# T2 sequence (A0A1I9HZK8 1-140 limits assumed): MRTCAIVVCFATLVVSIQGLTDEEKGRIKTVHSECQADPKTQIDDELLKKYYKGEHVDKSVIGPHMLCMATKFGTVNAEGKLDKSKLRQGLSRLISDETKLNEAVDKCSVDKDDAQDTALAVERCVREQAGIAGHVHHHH
# Experimental: as §1
# [3] = molecular target: T2, MaltOBP9; assay: fluorescence competitive binding, 1-NPN displacement; conditions: read-out: MaltOBP9 / pH7.4
# Source text: fluorescence competitive binding, 1-NPN displacement on MaltOBP9
# [4] = molecular target: T1, MaltOBP10; assay: as above; conditions: read-out: MaltOBP10 / pH7.4
# Source text: fluorescence competitive binding, 1-NPN displacement on MaltOBP10
# [5] = molecular target: T1, MaltOBP10; assay: fluorescence titration, Scatchard analysis; type: binding; conditions: read-out: MaltOBP10 / pH7.4
# Source text: fluorescence titration, Scatchard analysis on MaltOBP10
# [6] = molecular target: T2, MaltOBP9; assay: fluorescence titration, Scatchard analysis; type: binding; conditions: read-out: MaltOBP9 / pH7.4
# Source text: fluorescence titration, Scatchard analysis on MaltOBP9
# [7] = molecular target: T1, MaltOBP10; assay: biochemical; parameters: direct 1-NPN fluorescence saturation binding to 2 uM recombinant OBP; Kd by Scatchard analysis; conditions: pH 5.0; read-out: MaltOBP10 / pH5.0
# Experimental: (§2) Fluorescence-binding assays were performed to determine the binding affinities of MaltOBP9 and MaltOBP10 with 17 volatiles in neutral and acidic pH conditions separately using N-phenyl-1-naphthylamine (1-NPN) as the fluorescent probe. 1-NPN and all of the other chemicals used in the binding assays were purchased from Sigma-Aldrich (St. Louis, MO, United States). All of the ligand stock solutions were prepared in spectrophotometric grade methanol. The binding constants for 1-NPN were determined by adding aliquots of 1 mM 1-NPN to separate samples containing 2 μM of each OBP in 50 mM Tris–HCl at pH 7.4 and room temperature. The binding of 1-NPN was measured at an excitation wavelength of 337 nm and the fluorescence intensity was recorded between 300 and 600 nm during a high-speed scan using an RF-5301PC fluorescence spectrophotometer with a 1-cm light path and a quartz cuvette. Saturation curves were constructed for the binding of 1-NPN with the OBPs and the dissociation constant (Kd) of the binding reaction was calculated by performing Scatchard analysis of the data using the Prism 5 program (GraphPad, La Jolla, CA, United States). […] Ki was calculated according to the following equation: Ki = [IC50]/(1+[1-NPN]/K), where 1-NPN is the free concentration of 1-NPN and K1–NPN is Kd for the 1-NPN-OBP binding reaction determined by Scatchard analysis ([Campanacci et al., 2001]). […]
# [8] = molecular target: T2, MaltOBP9; assay: biochemical; parameters: direct 1-NPN fluorescence saturation binding to 2 uM recombinant OBP; Kd by Scatchard analysis; conditions: pH 5.0; read-out: MaltOBP9 / pH5.0
# Experimental: as §2
# [9] = pH 5.0, read-out: MaltOBP10 / pH5.0
# [10] = pH 7.4, read-out: MaltOBP10 / pH7.4
# [11] = pH 5.0, read-out: MaltOBP9 / pH5.0
# [12] = pH 7.4, read-out: MaltOBP9 / pH7.4
"Ki [1, 9]","Ki [1, 10]","Ki [2, 12]",Compound,"Ki [2, 11]",Ki [4],Ki [3],other results
62.8 ± 1.08 µM,25.8 ± 3.78 µM,,C=C1CC[C@@H]2C[C@H]1C2(C)C [(+)-β-pinene],21.7 ± 0.65 µM,,,
32.5 ± 4.28 µM,42.5 ± 0.82 µM,25.1 ± 0.76 µM,CC1=CCC2C(C1)C2(C)C (stereo not drawn) [3-carene],38.12 ± 0.23 µM,,,
21.2 ± 3.49 µM,26.2 ± 1.76 µM,25.9 ± 0.76 µM,CC1(C)[C@H]2CC[C@]1(C)C(=O)C2 (racemic) [Camphor],50.5 ± 3.68 µM,,,
14.8 ± 0.57 µM,20.6 ± 1.22 µM,22.6 ± 1.08 µM,C=C1[C@@H]2CC[C@@H](C2)C1(C)C [Camphene],> 50 µM,,,
,,,C=C1[C@H]2CC[C@@H]3[C@H]2[C@H](C(C)C)CC[C@]13C [(+)-Sativene],,,,"Ki ([3]; pH 7.4, 50 mM Tris-HCl, room temperature, competitive with 1-NPN, 2 μM protein): 19.5 ± 0.36 µM"
,,,Cc1cc(C(C)(C)C)c(O)c(C(C)(C)C)c1 [Butylated hydroxytoluene],3.57 ± 0.58 µM,20.1 ± 2.75 µM,9.58 ± 0.28 µM,
,,,C=C1CC[C@H]2O[C@]2(C)CC[C@@H]2[C@@H]1CC2(C)C [(−)-caryophyllene oxide],39.3 ± 0.73 µM,16.4 ± 0.4 µM,15.3 ± 0.94 µM,
,,,"C=C(C)C1CCC2(C)OC2C1 (single isomer, unassigned; (+)) [(+)-Limonene oxide]",,,,"Ki ([1]; pH 5.0, binder, read-out: MaltOBP10 / pH5.0): 46.1 ± 4.9 µM; Ki ([1]; pH 7.4, binder, read-out: MaltOBP10 / pH7.4): 19.8 ± 1.78 µM; Ki ([2]; pH 5.0, binder, read-out: MaltOBP9 / pH5.0): 48.8 ± 4.51 µM; Ki ([2]; pH 7.4, binder, read-out: MaltOBP9 / pH7.4): 43.3 ± 0.74 µM"
,,,c1ccc(Nc2cccc3ccccc23)cc1 [1-NPN],,,,Kd [5]: 1.35 ± 0.09 µM; Kd [6]: 1.7 ± 0.21 µM; Kd [7]: 5.88 ± 0.69 µM; Kd [8]: 0.62 ± 0.18 µM
35.4 ± 0.63 µM,23.8 ± 2.33 µM,,Cc1ccc(C(C)C)cc1 [p-cymene],> 50 µM,,11.7 ± 0.23 µM,
55.5 ± 9.88 µM,23.9 ± 1.89 µM,,C=C(C)[C@H]1CC=C(C)CC1 [R-(+)-Limonene],> 50 µM,,17.1 ± 2.24 µM,
24.7 ± 1.29 µM,22.7 ± 1.23 µM,27.8 ± 1.04 µM,CC1(C)C(=O)[C@@]2(C)CC[C@@H]1C2 [(+)-Fenchone],46.2 ± 2.59 µM,,,

Compound,"Ki [1, 9]","Ki [1, 10]","Ki [2, 12]","Ki [2, 11]",Ki [4],Ki [3],other results
CC1=CC[C@@H]2C[C@H]1C2(C)C [(+)-α-pinene],17.3 ± 3.16 µM,,21.1 ± 2.84 µM,> 50 µM,13.3 ± 1.94 µM,,
C=C1CC/C=C(\C)CC[C@@H]2[C@@H]1CC2(C)C [β-Caryophyllene],23.5 ± 1.72 µM,,,129 ± 9.52 µM,16.3 ± 1.97 µM,16.36 ± 0.04 µM,
C=C(C)[C@@H]1CC=C(C)CC1 [S-(−)-Limonene],51.7 ± 5.74 µM,,29.2 ± 1.81 µM,12 ± 0.86 µM,18.4 ± 0.67 µM,,
C=CC(=C)CCC=C(C)C [Myrcene],19.37 ± 0.02 µM,,,3.96 ± 0.78 µM,12.4 ± 0.5 µM,7.77 ± 0.14 µM,
CC1=CCC(=C(C)C)CC1 [α-terpinolene],15.6 ± 1.44 µM,,22.2 ± 0.34 µM,18.5 ± 0.23 µM,17.5 ± 0.33 µM,,
CC1=CC[C@@H]2[C@@H]3[C@H]1[C@@]2(C)CCCC3(C)C [(+)-α-longipinene],21.2 ± 1.75 µM,,,34.7 ± 0.94 µM,11.6 ± 0.74 µM,12.5 ± 0.67 µM,
